The source made the active and inactive calls. The calls are words filed in the database; no cut-off is given here.
What was measured:
[1] = system: SIMA; assay: Increase in glycolysis in human SiMa cells assessed as conversion of glucose to lactate at 100 uM after 12 hrs relative to untreated control; assay type: functional
[2] = system: SIMA; assay: Antiproliferative activity against human SiMa cells at 10 to 100 uM after 72 hrs by MTT assay; assay type: functional, cell-based
[3] = system: LS; assay: Antiproliferative activity against human LS cells at 10 to 100 uM after 72 hrs by MTT assay; assay type: functional, cell-based
[4] = (§1) Increase in glycolysis in human LS cells assessed as conversion of glucose to lactate at 100 uM after 12 hrs relative to untreated control; assay type: functional
[5] = (§2) Increase in glycolysis in human Kelly cells assessed as conversion of glucose to lactate at 100 uM after 12 hrs relative to untreated control; assay type: functional
[6] = system: Kelly; assay: Antiproliferative activity against human Kelly cells at 10 to 100 uM after 72 hrs by MTT assay; assay type: functional, cell-based
[7] = system: SK-N-SH; assay: Antiproliferative activity against human SK-N-SH cells at 10 to 100 uM after 72 hrs by MTT assay; assay type: functional, cell-based
[8] = system: LS; assay: as §1; assay type: functional
[9] = system: Kelly; assay: as §2; assay type: functional
[10] = system: SIMA; assay: Antiproliferative activity against human SiMa cells after 72 hrs by MTT assay; assay type: functional, cell-based
[11] = system: Kelly; assay: Antiproliferative activity against human Kelly cells after 72 hrs by MTT assay; assay type: functional, cell-based
[12] = system: LS; assay: Antiproliferative activity against human LS cells after 72 hrs by MTT assay; assay type: functional, cell-based
[13] = system: SK-N-SH; assay: Antiproliferative activity against human SK-N-SH cells after 72 hrs by MTT assay; assay type: functional, cell-based

Row | Structure (SMILES) | Activity [1] | Activity [2] | Activity [3] | Activity [4] | Activity [5] | Activity [6] | Activity [7] | Activity [8] | Activity [9] | Activity [10] | Activity [11] | Activity [12] | Activity [13]
1 | N=C(N)NCc1cccc(I)c1 [IOBENGUANE] | 98% | Active | Active | 81% | 74% | Active | Active |  |  |  |  |  | 
2 | CS(=O)(=O)OCCCCOS(C)(=O)=O | inactive | Active | Active |  |  | Active | Active | inactive | inactive |  |  |  | 
3 | CS(=O)(=O)OCCCCOc1cccc(CNC(=N)N)c1 | Active |  |  |  |  |  |  | Active | Active | Dose-dependent effect | Dose-dependent effect | Dose-dependent effect | Dose-dependent effect
4 | CS(=O)(=O)OCCCCOc1ccc(CNC(=N)N)cc1 | Active |  |  |  |  |  |  | Active | Active | Dose-dependent effect | Dose-dependent effect | Dose-dependent effect | Dose-dependent effect
